Measurements from patent US20150126464A1, “THERAPEUTIC DRUG AND THERAPEUTIC METHOD FOR NEUROLOGICAL DISEASES INCLUDING ALZHEIMER'S DISEASE ASSOCIATED WITH 1,25D3-MARRS” (priority 2013, published 2015).

Tests used:
5XFAD mice [1] = assay: Immunohistochemistry of brain slices of 5XFAD mice (amyloid plaques, PHF-tau, abnormal axons, presynapses); format: in vivo, mouse; settings: vs vehicle-treated 5XFAD
Procedure: One day after the novel object recognition test, the mice were anesthetized and transcardially perfused with cold physiological saline. The brains were carefully removed from the skull, immediately immersed in 10 to 30% sucrose-PBS and stored at -80° C. The brains were cut in 20-μm successive coronal slices every 100 μm in the parietal area (bregma 1.4-2 mm) sections using a cryostat (C[…], Leica, Heidelberg, Germany). The slices were fixed with 4% paraformaldehyde and stained with a polyclonal antibody against Aβ (1-40/42) (1:300) (Chemicon, Temecula, Calif., USA), a monoclonal antibody against pNF-H (1:500) (Covance, Emeryville, Calif., USA), a monoclonal antibody against synaptophysin (1:500) (Sigma-Aldrich), and a monoclonal antibody against PHF-tau (Thermo Scientific, Rockford, Ill., USA) at 4° C. for 20 hours. […] Three successive brain slices of the frontal cortex and five successive slices of the hippocampus were captured from a mouse for quantification. Extracellular amyloid plaques were determined by the size (greater than 50 μm in width), and the area of amyloid plaques was measured using the image analyzing software ImageJ. The area of the pNF-H-positive abnormal bulb-like axons was measured using ImageJ for every amyloid plaque in the fluorescent images (324 μm×430 μm). The areas of the synaptophysin-positive presynaptic boutons in every amyloid plaque were measured in fluorescent images (324 μm×430 μm) using Image J. The areas of PHF-tau in every amyloid plaque and outer amyloid plaques were measured in fluorescent images (324 μm×430 μm) using ImageJ.

5XFAD mice [2] = assay: Open field locomotion test in 5XFAD mice; format: in vivo, mouse; settings: i.p. 20 days, diosgenin 10 μmol/kg, memantine hydrochloride 200 μmol/kg/day, among the four groups
Procedure: Diosgenin was dissolved in dimethyl sulfoxide (DMSO) at 10 times the final concentration to give a stock solution. The stock solution was diluted in physiological saline to the final concentration immediately before treatment. The diosgenin solution was intraperitoneally administered to 5XFAD mice once a day (10 μmol/kg=4.14 mg/kg) for 20 days. On the last day of administration (Day 20), each mouse was housed in a separate open-field box made of polyvinyl chloride (33 cm×[…]; height: 26.5 cm) and habituated to the environment for 10 min.
For each mouse of Example 1, Comparative Examples 1 and 2, and Reference Example 1, the path during the 10-minute habituation was tracked using a digital camera system. The distance each mouse traveled during the 10 minutes was analyzed as locomotion activity with EthoVision 3.0 (Noldus, Wageningen, The Netherlands). The next day, a novel object recognition test was performed as described in Joyashiki, E. et al., Int J Neurosci, 121, 181-190, 2011 and Tohda, C. et al., Int J Neurosci, 121, 641-648, 2011, written by the inventors and others. Testing was carried out in a dimly illuminated room. […] In the present invention, the ratio (%) of the exploration time for the novel object to the total exploration time was calculated as an exploration preferential index. […]

1,25D3-MARRS = target: T1, 1,25D3-MARRS (Rattus norvegicus, UniProt P11598); assay: Detection of luminescence resulting from 1,25D3-MARRS binding (cell surface-binding DHVD3); settings: diosgenin 0.1 μM or 10 μM added with DHVD3 0.1 μM, 10 minutes
T1 construct: endogenous in cells; host or cells: primary cultured rat cortical neurons (SD, E17)
T1 sequence (P11598 25-505): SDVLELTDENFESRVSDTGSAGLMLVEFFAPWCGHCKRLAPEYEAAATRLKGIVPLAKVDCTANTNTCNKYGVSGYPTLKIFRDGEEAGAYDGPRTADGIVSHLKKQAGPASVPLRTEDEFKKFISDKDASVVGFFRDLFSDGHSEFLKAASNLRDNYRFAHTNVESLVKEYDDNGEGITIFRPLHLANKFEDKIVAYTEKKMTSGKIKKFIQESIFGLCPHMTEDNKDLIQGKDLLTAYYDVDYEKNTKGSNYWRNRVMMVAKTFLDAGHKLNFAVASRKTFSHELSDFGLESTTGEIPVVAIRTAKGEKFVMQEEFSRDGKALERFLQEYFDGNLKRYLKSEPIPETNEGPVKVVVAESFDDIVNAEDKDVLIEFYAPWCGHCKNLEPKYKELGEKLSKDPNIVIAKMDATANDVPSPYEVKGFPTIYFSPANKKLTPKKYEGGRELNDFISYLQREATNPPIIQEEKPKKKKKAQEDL
Text: Embryos were removed from pregnant Sprague-Dawley rats (Japan SLC, Shizuoka, Japan) at 17 days of gestation. The cortices were dissected, and the dura mater was removed.
Primary cultured cortical neurons (SD, E17) were harvested into a 96-well white plate at a density of 0.5×10^5 cells/well. […] Horse radish peroxidase-conjugated goat anti-mouse IgG (1:2000) was used as a secondary antibody. The chemiluminescence of the antigen-antibody complex was detected using a GENios multi-plate reader (Tecan, Mannedorf, Zurich, Switzerland).

[3] = diosgenin 10 μmol/kg, memantine hydrochloride 200 μmol/kg/day i.p. 20 days

Structure (SMILES): C[C@@H]1CC[C@@]2(OC1)O[C@H]1C[C@H]3[C@@H]4CC=C5C[C@@H](O)CC[C@]5(C)[C@H]4CC[C@]3(C)[C@H]1[C@@H]2C [diosgenin]
- area of abnormal presynapses (swollen presynapse area) per amyloid plaque in the cerebral cortex (5XFAD mice [1]; diosgenin 10 μmol/kg i.p. 20 days): significantly reduced
- area of abnormal axons (swollen axon area) per amyloid plaque in the cerebral cortex (5XFAD mice [1]; [3]): significantly reduced
- area of abnormal axons (swollen axon area) per amyloid plaque in the hippocampus (5XFAD mice [1]; [3]): significantly reduced
- total area of PHF-tau in the cerebral cortex (5XFAD mice [1]; [3]): significantly reduced
- total area of PHF-tau in the hippocampus (5XFAD mice [1]; [3]): significantly reduced
- total area of amyloid plaques in the cerebral cortex (5XFAD mice [1]; [3]): significantly reduced
- total area of amyloid plaques in the hippocampus (5XFAD mice [1]; [3]): significantly reduced
- traveling speed and distance in open field locomotion test (5XFAD mice [2]): no significant differences
- immunochemiluminescence intensity of cell surface-bound DHVD3 (replacement of DHVD3) (1,25D3-MARRS): remarkably decreased
